The source made the active and inactive calls. The rule behind the calls is not given here.

The target of assay [1] is Outer membrane protein MIP (Legionella pneumophila) (UniProt Q70YI1).
Assay [2] concerns the target T1, Macrophage infectivity potentiator (Trypanosoma cruzi) (UniProt Q09734).
T1 sequence (whole entry): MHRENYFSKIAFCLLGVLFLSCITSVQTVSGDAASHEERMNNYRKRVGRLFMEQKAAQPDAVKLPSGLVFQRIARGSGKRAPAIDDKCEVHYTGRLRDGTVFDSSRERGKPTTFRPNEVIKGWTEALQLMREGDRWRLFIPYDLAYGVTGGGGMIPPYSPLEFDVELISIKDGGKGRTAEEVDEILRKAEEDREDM

The target in assay [3] is T2, Peptidyl-prolyl cis-trans isomerase (Burkholderia pseudomallei (strain K96243)) (UniProt Q63J95).
T2 sequence (whole entry): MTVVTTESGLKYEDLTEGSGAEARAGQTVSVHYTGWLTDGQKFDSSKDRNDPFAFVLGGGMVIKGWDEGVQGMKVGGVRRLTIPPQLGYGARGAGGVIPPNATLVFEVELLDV

The target in assay [4] is Outer membrane protein MIP (Legionella pneumophila) (UniProt Q70YI1). This is another data set of the same source.
The target is the same in assay [5]. This is another data set of the same source.
Assay [6] has the same target. The source holds these as a separate data set.
For assay [7] the target is unchanged. The source holds these as a separate data set.
Assay [8] deals with T1, Macrophage infectivity potentiator (Trypanosoma cruzi). This is another data set of the same source.
Assay [9] deals with Outer membrane protein MIP (Legionella pneumophila) (UniProt Q70YI1). This is another data set of the same source.
Assay [10] has the same target. This is another data set of the same source.
In assay [11] the target is T2, Peptidyl-prolyl cis-trans isomerase (Burkholderia pseudomallei (strain K96243)). The source holds these as a separate data set.
Assay [12] has the same target. This is another data set of the same source.
The target of assay [13] is Outer membrane protein MIP (Legionella pneumophila) (UniProt Q70YI1). The source holds these as a separate data set.
Assay [14] addresses T1, Macrophage infectivity potentiator (Trypanosoma cruzi). This is another data set of the same source.

Consider `CC(C)C[C@H](NC(=O)[C@@H]1CCCCN1S(=O)(=O)Cc1ccc(F)cc1)C(=O)NCc1cccnc1`, for which the outcome in assay [1], in assay [2], in assay [3], in [5], in assay [7] and in assay [9] was Active. The result in [10], in assay [11] and in assay [13] was Active. In addition, the Time in [4] was determined as 27.9 nanoseconds; in assay [6], 8.8 nanoseconds; in [8] it was 13.8 nanoseconds; in assay [12], 7.6 nanoseconds.

With `O=C(NCc1cccnc1)[C@H](Cc1ccc(F)cc1)NC(=O)[C@@H]1CCCCN1S(=O)(=O)Cc1ccc(F)cc1`, the result in [1], in assay [2], in assay [5], in [7], in assay [14] and in assay [9] was Active. Also, the outcome in [10], in assay [11] and in assay [13] was Active. Besides, the Time in assay [4] was determined as 25.4 nanoseconds; in [6] it was 9.7 nanoseconds; in [8], 14.5 nanoseconds; in assay [12], 7.8 nanoseconds.

These data come from ChEMBL document CHEMBL6103611, “Structure and Dynamics of Macrophage Infectivity Potentiator Proteins from Pathogenic Bacteria and Protozoans Bound to Fluorinated Pipecolic Acid Inhibitors” (J Med Chem, 2025).
